For assay [1] the following is noted: cited from earlier work.
A further assay deals with NIH-3T3 cells. Description: Hydrolysis of esterase substrates and product retention in live cells, flow cytometry (Example 65). The format is cell-based. As to the method: NIH-3T3 cells obtained from American Type Culture Collection Co., Rockville, Md. are used. They are grown in a humidified atmosphere of 5% CO2 in D-MEM supplemented with 10% bovine calf serum (BCS), 50 μg/mL gentamycin, 300 μg/mL L-glutamine and 10 mM HEPES, pH 7.4. Stock solutions of Compound 4 (Example 3), 10 mM in DMSO, and Compound 48 (Example 50), 5 mM in DMSO, are prepared. NIH-3T3 cells are trypsinized, washed with phosphate-buffered saline (PBS), pH 7.2 and resuspended in D-MEM with 10% BCS. To 1 mL of the cell suspension is added the dye stock solution to obtain a final dye concentration of 0.1 mM. Incubation is carried out at 37° C. for 30 minutes followed by incubation on ice for 30 minutes. Cells are centrifuged to form a pellet, the supernatant is discarded and the cells are washed twice with PBS, pH 7.2 and suspended in the same buffer. Cells are analyzed by flow cytometry using the Becton-Dickinson FACS Vantage flow cytometer. After analysis on the flow cytometer, cells are placed at 37° C. and analyzed by flow cytometry at frequent intervals over a period of 75 minutes. Cells stained with either of the dyes are at least 20-fold brighter than the autofluorescent control cells. Approximately 45% of Compound 4 and 35% of Compound 48 are still retained by the cells after 75 minutes of incubation at 37° C.

In assay [2] the test system is Bovine pulmonary aorta endothelial cells (BPAEC). Kind of assay: Glutathione adduct formation and fate of substrate in cultured animal cells, HPLC (Example 66). The format is cell-based. As to the method: The solutions are mixed overnight with three volumes of ethyl acetate followed by centrifugation at 15,000×g for 30 min to separate the organic and aqueous layers. HPLC analysis using a Rainin HPLC equipped with a C18, 5 μm, 100 Å, 4.6×250 mm MICROSORB-MV reverse phase column. […] Products are detected by reading the absorbance at 500 nm.
Bovine pulmonary aorta endothelial cells (BPAEC) are removed from flasks by trypsinization and washed into fresh complete growth medium to yield 10^6 cells/mL. […] Other aliquots of the cell suspension are loaded with the same substrates for 1 hour, rinsed into fresh complete medium, then incubated in the absence of substrate for an additional 3 hr at 37° C. to look for retention and efflux of fluorescent products. At the end of each incubation period the cells are removed by centrifugation and the supernate is retained. The cell pellets are resuspended in 1 mL of E-Pure water and subjected to three freeze-thaw cycles (-80° C. to 37° C.).

In assay [3] the test system is 3T3 or BPAE cells. Description: Intracellular products of tracers by gel electrophoresis (Example 67). The format is cell-based. The following applies: 5 μM, 1 hr, 37° C. As to the method:
(§1) Cultures of either 3T3 or BPAE cells are treated with 5 μM solutions of either Compound 4,5-(pentachlorobenzoylamino)fluorescein diacetate, 5-pentafluorobenzenesulfonylamino)fluorescein diacetate, or 5-chloromethylfluorescein diacetate (CMFDA, Molecular Probes, Inc.) for 1 hr at 37° C. The cells are spun, resuspended in distilled water and lysed by repeated freezing and thawing. 20 μL of the cell lysate supernatant is diluted with 30 μL of SDS-PAGE sample buffer, containing β-mercaptoethanol. The cell pellets are dispersed in 50 μL of water. 20 μL of each sample is added to 30 μL of the same sample buffer. The samples are heated at 95° C. for 5 min. and loaded on 4-20% polyacrylamide gradient minigels. At the completion of the run the gels are observed with UV excitation.

In assay [4] the test system is Bovine pulmonary aorta endothelial cells (BPAEC). Description: Retention of fluorescence in fixed cells (Example 66). The format is cell-based. The conditions noted are these: 3.7% formaldehyde 30 minutes, 0.2% Triton X-100 30 minutes.
Assay [5] deals with 3T3 or BPAE cells. Kind of assay: Intracellular products of tracers by TLC and HPLC (Example 67). In kind it is cell-based. The following applies: 5 μM, 1 hr, 37° C. How it is done: Reaction mixtures with and without GST using Compound 1 as the substrate, are prepared as described in Example 48. The solutions are mixed overnight with three volumes of ethyl acetate followed by centrifugation at 15,000×g for 30 min to separate the organic and aqueous layers. HPLC analysis using a Rainin HPLC equipped with a C18, 5 μm, 100 Å, 4.6×250 mm MICROSORB-MV reverse phase column. Products are separated in 30 min with a gradient of 5% to 95% solvent B in Solvent A at a flow rate of 1 mL/min, where solvent A is 0.1M triethylammonium acetate, pH 7.0, and solvent B is acetonitrile (see FIG. 1). Products are detected by reading the absorbance at 500 nm. Peaks are identified and, if desired, quantitated by comparing retention times with authentic samples of the glutathione adduct of Compound 45 (Example 45).
as §1
Alternatively, the above samples are analyzed by TLC and by HPLC, as described in Examples 48 and 52. […] Coinjection with authentic Compound 1 confirms the identity of the substrate peak and coinjection with the authentic Compound 1-GSH adduct (Example 45) confirms the identify of the other fluorescent product.

For a further assay, the system named is β-galactosidase. Description: Reactivity with thiol groups of proteins (Example 51). The format is biochemical. As to the method:
To test the specificity of the Compound 1 reaction with GSH versus thiol-containing proteins, β-galactosidase (a protein that has several free thiols) is dissolved at 5 mg/mL in deoxygenated 0.1M phosphate, 0.1M NaCl, pH 7.5, and reacted under anaerobic conditions with 5-(pentafluorobenzoylamino)fluorescein diacetate (Compound 4, Example 3) or Compound 1 dissolved at 10 mg/mL in DMSO at a molar ratio of the reagent to protein of 15. This assay is performed both in the presence and absence of 30 mM N-ethyl maleimide (NEM) as an effective thiol-blocking reagent. The reactions are incubated at room temperature for 1 hour, stopped by the addition of hydroxylamine, pH 9 to a final concentration of 0.15M, and incubated for 2 more hours to hydrolyze the acetate groups. […] Consequently, no reaction of either Compound 4 or Compound 1 with β-galactosidase is detected under the described conditions.

The mark [6] stands for this setting: 15 min, 5 μM substrate, continuous.
Setting [7] is: 1 hr, washed, then additional 3 hr at 37° C.
Setting [8] is: 4 hrs, 5 μM substrate, continuous.

Entries after “also recorded” stand apart in the source; their conditions may differ. Where only a bound is given, the exact number is not on record here.

On to `O=[N+]([O-])c1ccc(Cl)c([N+](=O)[O-])c1` [1-Chloro-2,4-dinitrobenzene], for which the “reaction with GSH in the presence of GST enzymes” value in assay [1] is reported as “react specifically with GSH in the presence of GST enzymes”.
On to `CC(=O)Oc1ccc2c(c1)Oc1cc(OC(C)=O)ccc1C21OC(=O)c2cc(NC(=O)c3c(F)c(F)c(F)c(F)c3F)ccc21` [Compound 4, 5-(pentafluorobenzoylamino)fluorescein diacetate], for which, in the assay with NIH-3T3 cells (0.1 mM dye, 37° C., 30 minutes then on ice 30 minutes), the “brightness versus autofluorescent control cells” value was “at least 20 fold”. Also, the “dye retained by the cells” value in the assay with NIH-3T3 cells (after 75 minutes of incubation at 37° C.) is listed as “Approximately 45%”. Further, the “GSH adduct formation in cells” value in assay [2] (5 μM substrate, 37° C., HPLC) is “hydrolyzed and conjugated to glutathione; also recorded: gives rise to glutathione (GSH) adducts”. Also, in assay [2] (setting [6]), the “EXTRACELLULAR Free dye” value is given as 3350 relative fluorescence units; the “EXTRACELLULAR Free dye, fraction of total fluorescence” value (shortened to “EXTRACELLULAR Free dye, fraction”) came out at 89.2%; the “EXTRACELLULAR GSH adduct” value is listed as 97 relative fluorescence units; the “EXTRACELLULAR GSH adduct, fraction of total fluorescence” value (from here on “EXTRACELLULAR GSH adduct, fraction”) came to 2.6%. Besides, in assay [2] (setting [6]), the “INTRACELLULAR Free dye” value is listed as 237 relative fluorescence units; the “INTRACELLULAR Free dye, fraction of total fluorescence” value (shortened to “INTRACELLULAR Free dye, fraction”) is 6.3%; the “INTRACELLULAR GSH adduct” value is given as 72 relative fluorescence units; the “INTRACELLULAR GSH adduct, fraction of total fluorescence” value (from here on “INTRACELLULAR GSH adduct, fraction”) turned out to be 1.9%. For the same compound, in assay [2] (setting [7]), the “EXTRACELLULAR Free dye” value is reported as 361 relative fluorescence units; the “EXTRACELLULAR Free dye, fraction” value was 85.3%; the “EXTRACELLULAR GSH adduct” value was 62 relative fluorescence units; the “EXTRACELLULAR GSH adduct, fraction” value is 14.7%. In assay [2] (setting [7]), the “INTRACELLULAR Free dye” value is < 1 relative fluorescence units; the “INTRACELLULAR Free dye, fraction” value is reported as less than 0.2%; the “INTRACELLULAR GSH adduct” value is on record as < 1 relative fluorescence units; the “INTRACELLULAR GSH adduct, fraction” value is less than 0.2%. Moreover, in assay [2] (setting [8]), the “EXTRACELLULAR Free dye” value is on record as 4498 relative fluorescence units; the “EXTRACELLULAR Free dye, fraction” value worked out at 86.8%; the “EXTRACELLULAR GSH adduct” value is on record as 642 relative fluorescence units; the “EXTRACELLULAR GSH adduct, fraction” value was found to be 12.4%. For the same compound, in assay [2] (setting [8]), the “INTRACELLULAR Free dye” value is recorded as 23 relative fluorescence units; the “INTRACELLULAR Free dye, fraction” value stood at 0.4%; the “INTRACELLULAR GSH adduct” value is listed as 21 relative fluorescence units; the “INTRACELLULAR GSH adduct, fraction” value is on record as 0.4%. In the assay on 3T3 or BPAE cells [3], the “fluorescent bands on gel (region of the tracking dye)” value is on record as “Two closely spaced green fluorescent bands” and the “protein adduct bands on gel” value was “No other band corresponding to proteins is visible”. In assay [4], the “fluorescence after fixation and permeabilization” value is reported as “appreciably fluorescent”. Moreover, the “products by HPLC” value in the assay on 3T3 or BPAE cells [5] (HPLC) is “two peaks”. Also, the “products by TLC” value in the assay on 3T3 or BPAE cells [5] (TLC) is reported as “formation of a GSH adduct”. Also, the “fluorescent proteins formed, gel electrophoresis” value with β-galactosidase (molar ratio of reagent to protein 15) is “no fluorescent proteins are formed”. Besides, the “reaction with β-galactosidase, TLC” value in the assay on β-galactosidase (molar ratio of reagent to protein 15, pH 7.5, 1 hour, with and without 30 mM NEM) was “no reaction”.
Turning to `O=S1(=O)OC(c2cc(Br)c(O)c(Br)c2)(c2cc(Br)c(O)c(Br)c2)c2ccccc21` [tetrabromophenolsulfonephthalein], the “reaction with GSH in the presence of GST enzymes” value in assay [1] is “react specifically with GSH in the presence of GST enzymes”.

The record behind these values is patent publication US5773236A, “Assay for glutathiane transferase using polyhaloaryl-substituted reporter molecules” (Molecule Probes, Inc., priority 1997, dated 1998).
